Results: PMC10815170, “Exploring the Blood Glucose-Lowering Potential of the Umami Peptides LADW and EEAEGT Derived from Tuna Skeletal Myosin: Perspectives from α-Glucosidase Inhibition and Starch Interaction” (Foods, 2024)
Peptide text beside a SMILES is read from it.

Legend:
[1] = sensory evaluation in previous work; ref [7]; cited from earlier work
Source text: The intestinal stability, non-toxicity, and absorbability of peptides were considered important indicators for identifying bioactive peptides. In our previous work, these peptides were also confirmed to be non-toxic by sensory evaluation, and the peptides LADW and […] were obtained by hydrolysis with three common enzymes (pepsin, trypsin, and chymotrypsin) in the GI tract. […] Therefore, the potential α-GIPs identified in this study were presumed to withstand hy ...

[2] = molecular target: T1, α-Glucosidase from Saccharomyces cerevisiae (Saccharomyces cerevisiae, UniProt P53341); test: α-Glucosidase inhibitory activity (pNPG); assay type: biochemical; details: PBS pH 6.8, 37 °C, 405 nm; for α-glucosidase inhibitory rate: 10 mM peptide, pNPG, n = 3; for IC50: 15 min preincubation, pNPG 15 min, mean ± SD (n = 3), read-out: IC50 value, α-glucosidase inhibition
T1 construct: purchased Yuanye Bio-Technology Co., Ltd. (Shanghai, China)
Source text: α-Glucosidase from Saccharomyces cerevisiae (activity ≥ 30 U/mg) and porcine bile salt (purity ≥ 60.0%) were obtained from Yuanye Bio-Technology Co., Ltd. (Shanghai, China). Pepsin (activity ≥ 800 U/mg), pancreatin (activity ≥ 4000 U/g), and amyloglucosidase (activity ≥ 10,000 U/g) were obtained from Shanghai Ryon Biological Technology Co., Ltd. The p-nitrobenzene-α-D-glucopyranoside (pNPG, purity ≥ 99.0%) was purchased from Sigma-Aldrich (Shanghai, China). Peptides LADW and EEAEGT (purity ≥ 98.0%) were synthesized by ALL PEPTIDE Biology Co., Ltd. (Hangzhou, China). All other chemicals and solvents were of analytical grade.
α-Glucosidase inhibitory activity was determined following the method of Zheng et al., with slight modifications. Briefly, 80.0 μL of phosphate-buffered saline (PBS, pH = 6.8), 20.0 μL of α-glucosidase (7 U/mL, dissolved in PBS), and 20.0 μL of the peptide (dissolved in PBS) were mixed and incubated at 37 °C for 15 min. Subsequently, 20.0 μL of pNPG (2.5 mM, dissolved in PBS) was added to the mixture, followed by another incubation at 37 °C for 15 min. To terminate the reaction, 60 μL of Na2CO3 (0.2 M, dissolved in PBS) was added, and the absorbance was measured at 405 nm using a SpectraMax M5 microplate reader (Molecular Devices, Sunnyvale, CA, USA). The α-glucosidase inhibitory rate (%) was determined using the following formula:α-glucosidase inhibitory rate (%) = [1 − (Asample − Asample blank)/(Acontrol − Acontrol blank)] × 100 where Asample and Asample blank were the absorbance values with and without α-glucosidase added, respectively; Acontrol and Acontrol blank were the absorbance values with and without peptide solution added, respectively, after replacing α-glucosidase solution with PBS solution. The above solution without addition was replaced by PBS solution.

[3] = set-up: method as in PMID 8001624; details: clinical practice; ref [3]; cited from earlier work
[4] = sensory evaluation in previous work; ref [7]; cited from earlier work; remark: listed apart in the source
Source text: Table 1 Prediction results of physicochemical properties and potential activity of peptides. | column: Umami Threshold (mg/mL)

T1 sequence (P53341 whole entry): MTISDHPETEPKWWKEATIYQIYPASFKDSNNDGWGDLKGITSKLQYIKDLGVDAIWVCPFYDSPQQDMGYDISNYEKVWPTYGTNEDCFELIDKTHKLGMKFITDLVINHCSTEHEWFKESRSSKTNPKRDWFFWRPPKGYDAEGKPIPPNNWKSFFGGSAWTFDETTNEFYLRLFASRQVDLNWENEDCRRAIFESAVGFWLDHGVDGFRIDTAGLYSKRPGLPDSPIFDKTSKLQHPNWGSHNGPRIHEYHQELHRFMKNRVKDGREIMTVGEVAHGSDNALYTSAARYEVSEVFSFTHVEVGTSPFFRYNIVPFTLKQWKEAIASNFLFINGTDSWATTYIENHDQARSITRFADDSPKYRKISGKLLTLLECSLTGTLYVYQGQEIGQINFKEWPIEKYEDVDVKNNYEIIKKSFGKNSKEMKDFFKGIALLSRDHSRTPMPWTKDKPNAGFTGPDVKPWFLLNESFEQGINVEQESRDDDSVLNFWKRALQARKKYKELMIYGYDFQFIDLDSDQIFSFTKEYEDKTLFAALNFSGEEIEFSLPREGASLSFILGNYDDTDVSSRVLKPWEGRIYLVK

Compound | Toxicity [1] | α-glucosidase inhibitory rate [2] [%] | IC50 [2] [mM] | Adverse effects [3] | Umami Threshold [4] [mg/mL]
C[C@H](NC(=O)[C@H](CCC(=O)O)NC(=O)[C@@H](N)CCC(=O)O)C(=O)N[C@@H](CCC(=O)O)C(=O)NCC(=O)N[C@H](C(=O)O)[C@@H](C)O [EEAEGT] (H-EEAEGT-OH) | non-toxic | 96.44 | 6.46 ± 0.22 | – | –
CC(C)C[C@H](N)C(=O)N[C@@H](C)C(=O)N[C@@H](CC(=O)O)C(=O)N[C@@H](Cc1c[nH]c2ccccc12)C(=O)O [LADW] (H-LADW-OH) | non-toxic | 98.15 | 4.4 ± 0.04 | – | –
C[C@H]1O[C@H](O[C@H]2[C@H](O)[C@@H](O)[C@@H](O[C@H]3[C@H](O)[C@@H](O)C(O)O[C@@H]3CO)O[C@@H]2CO)[C@H](O)[C@@H](O)[C@@H]1N[C@H]1C=C(CO)[C@@H](O)[C@H](O)[C@H]1O (stereo partly drawn) [acarbose] | – | – | – | flatulence, diarrhea, and abdominal pain | –
MEIDD [novel umami peptide identified in the hydrolysate of tuna skeletal myosin] | – | – | – | – | 0.250
VAEQE [novel umami peptide identified in the hydrolysate of tuna skeletal myosin] | – | – | – | – | 0.125
